The values that follow come from a melting point compilation (Tetko et al.).

Each structure is given as a SMILES string.

As a reminder, the melting point is the temperature, or range, at which the solid turns liquid.

Turning to `Cc1ccc(CC(=O)NO)cc1`, the melting point lay in the range of 155 to 157 °C.

`Cc1cc(C(=O)O)c(C)n1-c1ccccc1Br` registered a melting point of 164 to 166 °C.

Take `CCc1ccc(C(=O)Nc2ccc(N)cc2Cl)s1`: the melting point is 120 to 122 °C.

As to `O=C(O)c1c(O)cccc1Cl`, the melting point is 166 to 168 °C.

Compound `CC(C)(C)OC(=O)C(C#N)c1nccnc1Cl` (stereo unspecified) had a melting point of 62 to 64 °C.

Compound `CCN(c1ccccc1)S(=O)(=O)c1cc(N)ccc1Cl` came in with a melting point of 102 to 104 °C.

`N#CCOc1ccc(N)cc1` registered a melting point of 51 to 53 °C.

For `FC(F)(F)c1ccc2sc(C3CCNCC3)nc2c1`, the melting point fell in the range of 71 to 73 °C.

`Oc1[nH]nc2c1CC(c1ccccc1)CC2` (stereo unspecified): the melting point lay within 269 to 271 °C.

Take `Oc1ccc(OCC2CC2)cc1`: the melting point fell in the range of 54 to 56 °C.

With `CC(=O)N(c1nc(CCl)cs1)c1ccccc1F`, the melting point was in the range of 150 to 155 °C.

The compound `c1cn2c(n1)NCCC2` displayed a melting point of 104 to 106 °C.

In turn, `Cc1nc(-c2ccc(O)cc2)cs1` registered a melting point of 210 to 212 °C.

As to `CC(=O)Nc1cccc2c1CCCN2`, the melting point was 144 to 146 °C.

`CCOC(=O)c1cc(Br)ccc1N` displayed a melting point of 79 to 81 °C.

Take `CNC(=O)NCC(=O)O`: the melting point is 138 to 140 °C.

`CCCCCS(N)(=O)=O` displayed a melting point of 62 to 64 °C.

Turning to `COC1(OC)CC(CO)(CO)C1`, the melting point lay within 48 to 50 °C.

In the case of `O=C(O)c1cnn(-c2ncccc2Cl)c1C(F)F`, the melting point fell in the range of 178 to 180 °C.

As for `OCC(c1ccc(Br)cc1)N1CCNCC1` (stereo unspecified), the melting point is 109 to 111 °C.

`CCCOc1nc(C(=O)O)cc2ccccc12` gave a melting point of 159 to 161 °C.

In the case of `Cc1ccc(NC(=O)C2CCNCC2)nc1`, the melting point lay within 145 to 147 °C.

The compound `Nc1ccc2[nH]c(=O)c(=O)[nH]c2c1` returned a melting point of 352 to 354 °C.

`O=C(O)c1cccc(NC(=O)c2ccco2)c1` returned a melting point of 224 to 226 °C.

On to `Nc1ccccc1C(=O)N1CCCCC1`, for which the melting point was in the range of 79 to 83 °C.

The compound `CCOC(=O)c1cc(C)cc(Br)c1N` showed a melting point of 44 to 46 °C.

The compound `CC(C)C(NC(=O)c1ccco1)C(=O)O` (stereo unspecified) had a melting point of 103 to 105 °C.

With `Cc1nc(C(C)(C)C)nc(Cl)c1C`, the melting point was 36 to 38 °C.

On to `NCc1cccc(NC(=O)C2CC2)c1`, for which the melting point lay within 96 to 98 °C.

Take `O=C1CCC2(CC1)C(=O)Nc1ccccc12`: the melting point is 198 to 200 °C.

The compound `CC(C)c1ccc(C2(C(=O)O)CCCC2)cc1` had a melting point of 153 to 155 °C.

`O=C(CO)N1CCc2ccccc2C1`: the melting point was 99 to 101 °C.

The compound `Cc1nc(-c2ccccn2)nc(O)c1C` showed a melting point of 145 to 147 °C.

`O=C(O)COCc1nc2ccccc2c(=O)[nH]1` gave a melting point of 259 to 261 °C.

For the compound `NC(=O)c1n[nH]c2ccc(N)cc12`, the melting point lay in the range of 199 to 201 °C.

The compound `O=C(O)CN1CCN(C(=O)OCc2ccccc2)CC1` registered a melting point of 142 to 144 °C.

In the case of `CC(C)(C)OC(=O)NCC1CCCC1N` (stereo unspecified), the melting point lay within 43 to 45 °C.

In turn, `COC(=O)c1ccc(-c2nn[nH]n2)cc1` came in with a melting point of 230 to 232 °C.

Consider `O=C(Nc1ccc(S(=O)(=O)Cl)cc1[N+](=O)[O-])C(F)(F)F`, for which the melting point lay in the range of 91 to 93 °C.

`N#Cc1cccnc1N1CCCC1` registered a melting point of 36 to 38 °C.

In turn, `O=C(O)Cc1csc(N2CCNC2=O)n1` showed a melting point of 179 to 181 °C.

Regarding `COc1ccc(-n2c(C)cc(C(=O)O)c2C)cc1`, the melting point fell in the range of 232 to 234 °C.

Take `O=C(NO)c1c(F)cccc1Cl`: the melting point fell in the range of 149 to 151 °C.

In the case of `NC(=S)C1CCCO1` (stereo unspecified), the melting point was in the range of 80 to 82 °C.

For `O=C1Nc2c(ccc(Cl)c2F)C1=O`, the melting point was in the range of 200 to 202 °C.

The compound `Cc1ccccc1COc1cccc(N)c1` yielded a melting point of 61 to 63 °C.

Compound `Cc1sc2ccc(Cl)cc2c1S(=O)(=O)Cl` yielded a melting point of 148 to 150 °C.

For the compound `CC1(c2ccc3c(c2)OCCO3)NC(=O)NC1=O` (stereo unspecified), the melting point fell in the range of 180 to 182 °C.

For `CS(=O)(=O)Cc1ccc(F)cc1CN`, the melting point was 77 to 79 °C.

The compound `NNC(=O)c1cn(-c2ccccc2)nc1-c1ccccc1` registered a melting point of 161 to 163 °C.

`Cc1nc(=O)c2cnn(-c3ccc([N+](=O)[O-])cc3)c2[nH]1` yielded a melting point of 341 to 343 °C.

In turn, `Cc1cc(NC(=O)OC(C)(C)C)ccn1` displayed a melting point of 167 to 169 °C.

`CN1CCc2cc(C=O)ccc21` registered a melting point of 38 to 40 °C.

For the compound `Cc1nc(C)c(CCl)s1`, the melting point lay in the range of 62 to 64 °C.

As to `CS(=O)(=O)Nc1ccc(C(=O)O)c(O)c1`, the melting point lay in the range of 227 to 229 °C.

`CCOc1ccc(C(=O)c2ccccc2Cl)cc1` displayed a melting point of 86 to 88 °C.

For the compound `O=C(O)c1ccc(-n2cc(Br)cn2)nn1`, the melting point is 209 to 211 °C.

For the compound `Cc1ccc(F)c(-c2nc(C(=O)O)no2)c1`, the melting point was in the range of 107 to 109 °C.

Consider `O=C(O)c1cc2ccccn2c1`, for which the melting point lay within 179 to 181 °C.

Take `O=C(O)c1cc(OCc2ccccc2)ccc1O`: the melting point fell in the range of 165 to 167 °C.

`O=[N+]([O-])c1ccc(CCl)c(Cl)c1` gave a melting point of 50 to 52 °C.

`Cc1ccc(N2C(=O)NC(=O)C2C)cc1` (stereo unspecified) yielded a melting point of 110 to 112 °C.

`Cn1ncc2c(=O)[nH]c(NN)nc21` showed a melting point of 285 to 287 °C.

As to `OC(O)c1nc(-c2ccccc2)no1`, the melting point is 103 to 105 °C.

Take `O=C(O)C(c1ccccc1)n1cccn1` (stereo unspecified): the melting point lay in the range of 141 to 143 °C.

`Cc1nc(C(=O)O)nn1-c1ccccc1`: the melting point fell in the range of 172 to 174 °C.

The compound `O=C(O)c1cc(-c2ccco2)nc2onc(-c3ccco3)c12` showed a melting point of 269 to 271 °C.

The compound `O=C(O)c1ccn(-c2ccc(Cl)c(Cl)c2)n1` yielded a melting point of 191 to 193 °C.

`COCc1cc(Cl)n2ncnc2n1`: the melting point was 104 to 106 °C.

On to `COc1cccc2c1OCC(C(=O)O)C2` (stereo unspecified), for which the melting point fell in the range of 174 to 176 °C.

For the compound `O=C(/C=C/c1ccco1)C(C(=O)/C=C/c1ccco1)=C1SCCCCS1`, the melting point is 137 to 139 °C.

On to `CCC(O)c1ccc(O)cc1` (stereo unspecified), for which the melting point lay within 81 to 83 °C.

Compound `Cc1ccc(C(=O)O)c(O)c1O` came in with a melting point of 204 to 206 °C.

Compound `N#CC1(N2C(=O)C=CC2=O)CCCC1` gave a melting point of 43 to 45 °C.

Turning to `COC(=O)c1c(C(=O)CCl)c(C)n(C2CC2)c1C`, the melting point is 74 to 78 °C.

Compound `O=C(O)COc1ccc(C2SCCS2)cc1` registered a melting point of 137 to 139 °C.

`CN(C)S(=O)(=O)c1ccc(N2CCOCC2)c(N)c1` yielded a melting point of 174 to 176 °C.

As for `NC(=S)c1ccco1`, the melting point was in the range of 132 to 134 °C.

`O=C(O)c1ccc(-c2ccc([N+](=O)[O-])cc2Cl)o1` displayed a melting point of 251 to 253 °C.

`NC(=O)NCC(F)(F)F` had a melting point of 110 to 112 °C.

The compound `CC(C(=O)O)N(C)c1nccn2cnnc12` (stereo unspecified) returned a melting point of 153 to 155 °C.

Compound `CCCCNC(=O)Nc1cccc2c1CCCN2` registered a melting point of 173 to 175 °C.

For the compound `FC(F)(F)Cn1c(-c2ccccc2)cnc1S`, the melting point is 179 to 181 °C.

`Nc1ccc(S(=O)(=O)Nc2ccc(Cl)cc2Cl)cc1` had a melting point of 162 to 164 °C.

`NCc1ccc(CN2CCC(O)CC2)cc1` came in with a melting point of 128 to 130 °C.

The compound `Nc1ccc(N2CCSCC2)cc1C(=O)O` gave a melting point of 176 to 178 °C.

The compound `Nc1c(I)cccc1C(=O)O` showed a melting point of 172 to 174 °C.

Turning to `O=C(O)c1cc(N2CCOCC2)ccn1`, the melting point fell in the range of 257 to 259 °C.

Compound `COc1ccc(Sc2ccc(N)cc2)cc1` came in with a melting point of 93 to 95 °C.

As to `O=c1[nH]c(=O)c2ccccc2s1`, the melting point was in the range of 292 to 294 °C.

`CCCCn1c(=O)[nH]c(=O)c2c1nc(CCl)n2C` came in with a melting point of 222 to 224 °C.

`O=C(O)CCN1C(=O)CCc2ccccc21` registered a melting point of 157 to 159 °C.

`O=C(O)c1ccnc(C2CC2)n1`: the melting point fell in the range of 218 to 220 °C.

In turn, `CC(C)(C)c1ccc(CC(=O)O)cc1` had a melting point of 76 to 78 °C.

Regarding `CN1CCN(C(=O)c2ccccc2N)CC1`, the melting point fell in the range of 74 to 76 °C.

With `COC(=O)CNC(=O)c1cccc(N)c1`, the melting point lay in the range of 103 to 105 °C.

`Cc1ccc(-c2ocnc2C(=O)O)cc1` had a melting point of 193 to 195 °C.

Regarding `COc1ccc(N)cc1OCCN(C)C`, the melting point fell in the range of 70 to 72 °C.

With `CC(=O)N1CCN(CCC(=O)O)CC1`, the melting point lay in the range of 114 to 116 °C.

Regarding `CC1(c2ccc3ccccc3c2)NC(=O)NC1=O` (stereo unspecified), the melting point lay in the range of 190 to 192 °C.

In turn, `CCCc1ccccc1NC(N)=S` yielded a melting point of 116 to 118 °C.

The compound `Cc1nc(Cl)nc(N(C)C)n1` gave a melting point of 81 to 83 °C.

As for `CC(=O)c1ccc(-c2ccc(Cl)c(Cl)c2)cc1`, the melting point fell in the range of 135 to 137 °C.

With `Cc1oncc1C(=O)Nc1ccc(N)c(C(F)(F)F)c1`, the melting point lay in the range of 196 to 198 °C.

`CON(C)S(=O)(=O)c1ccc(C(=O)O)cc1` gave a melting point of 210 to 212 °C.

On to `Cc1n[nH]c(C)c1S(=O)(=O)N1CCN(C)CC1`, for which the melting point was 187 to 189 °C.

Consider `NCc1ccc(S(=O)(=O)N2CCOCC2)cc1`, for which the melting point is 121 to 123 °C.

For the compound `C1CC(C2CCOCC2)CCN1`, the melting point is 52 to 54 °C.

`CN(C(=O)c1ccncc1)c1ccc(C#N)cc1` gave a melting point of 105 to 107 °C.

As for `Cc1ccc(-c2nnc(O)c3ccccc23)cc1`, the melting point was in the range of 250 to 255 °C.

Compound `CCOC(=O)/C(C#N)=C\Nc1ccc(Cl)cc1F` had a melting point of 154 to 156 °C.

Regarding `O=C(O)Cn1c(-c2ccccc2)cc2ccccc21`, the melting point lay within 145 to 147 °C.

As for `COc1ccc(-c2nc(N)cc(=O)[nH]2)cc1`, the melting point fell in the range of 271 to 273 °C.

`Cc1nn(-c2ccccc2)c2sc(C(=O)O)cc12` returned a melting point of 234 to 236 °C.

In the case of `N#Cc1ccc(Cl)cc1NC1CCCCC1`, the melting point was 74 to 76 °C.

`O=C(O)c1cccc(NC(=O)c2cccnc2)c1` registered a melting point of 304 to 306 °C.

`COC(=O)C(=O)CC(=O)c1ccc(OC)cc1F` gave a melting point of 101 to 103 °C.

Regarding `CC(C)Oc1ccc(C(=O)O)cn1`, the melting point is 122 to 124 °C.

Regarding `O=C(O)c1ccc(CN2CCc3ccccc32)cc1`, the melting point fell in the range of 182 to 184 °C.

Turning to `O=C(O)Cc1csc(NC(=O)Cc2cccs2)n1`, the melting point was in the range of 200 to 202 °C.

For `CN(C)C=Nc1[nH]ncc1C#N`, the melting point is 159 to 161 °C.
